Test results from PMC11769286, “Nanoformulation of Polymyxin E Through Complex Coacervation: A Pharmacokinetic Analysis” (Pharmaceutics, 2025).
In brackets after ≈: the same amount, converted by molar mass. Positions of bridges follow the written chain, without caps; N, C: chain ends. Non-standard residues stand in square brackets, D forms with d. Residues, ends and D or L forms follow the SMILES beside them. *: point of attachment. Heptanoyl(5-Me) = CCC(C)CCCC(=O)*; Dab = NCC[C@H](N)C(=O)O

Columns and labels:
Acinetobacter baumannii = assay type: cell-based
From the text: (§1) In line with the 2021 edition of the United States Clinical and Laboratory Standards Institute (CLSI) guidelines (https://clsi.org/), we employed the broth microdilution method to determine the MIC of the compounds against clinical Gram-negative bacilli. We tested 23 strains of Escherichia coli, including 12 carbapenem-sensitive and 11 drug-resistant strains, and 22 strains of Klebsiella pneumoniae, including 12 carbapenem-sensitive and 10 drug-resistant strains. Additionally, we assessed 20 strains of Acinetobacter baumannii, again including 10 carbapenem-sensitive and 10 drug-resistant strains, and 21 strains of Pseudomonas aeruginosa. Quality control strains used were Escherichia coli ATCC 25922 and Pseudomonas aeruginosa ATCC 27853 [20]. For the preparation of antimicrobial agents, we dissolved seven batches of the test drug in 3 mL of water and subsequently diluted it to a concentration of 500 mg/L. The control drug was prepared according to CLSI requirements. The antibacterial solutions were tested over a concentration range spanning from 0.015 mg/L to 32 mg/L. We utilized cation-adjusted Mueller–Hinton broth (CAMHB) from BD Company, with lot number 9324795.
(§2) Regarding bacterial inoculation, we selected fresh, pure bacterial colonies from Columbia blood agar using the direct colony suspension method, resulting in a turbidity of 0.5 McFarland units. This suspension was then appropriately diluted, yielding a final bacterial concentration of 10^5 CFU/mL. Culturing conditions involved incubation in ambient air at 35 ± 2 °C for a duration of 16–20 h. Results were interpreted in accordance with the European EUCAST breakpoint criteria, where PME sensitivity was defined as ≤2 mg/L and resistance as ≥4 mg/L. Criteria for assessing other tested drugs were provided by the party commissioning the study. The MIC value represented the minimum drug concentration necessary to inhibit bacterial growth. Data analysis was performed using WHONET 5.6 software for statistical evaluation of the drug susceptibility test results.

Klebsiella pneumoniae = assay type: cell-based
From the text: as §1, §2

CD-1 mice = experiment: Determination of maximum tolerated dose (MTD); assay type: in vivo; conditions: male CD-1 mice, n = 3, tail vein, BID (q8h)
Method: CD-1 mice, male, 7–8 weeks old, weighing 25–30 g, were purchased from Shanghai Lingchang Laboratory Animal Co. The mice were grouped into n = 3, and different doses of PME were injected into the tail vein of mice via BID (q8h). HA2 prescription (HA2-2.6, HA2-2 and HA2-1.5) and SOP prescription (SOP-2.6, SOP-2 and SOP-1.5) were used for MTD examination.

[1] = set-up: species or system SD rats; conditions: rat, in vivo, iv
[2] = system: A. Baumannii ATCC BAA-1605; conditions: 8 mpk BID q12h, tail vein; 24 h after infection
Method: CD-1 mice (SPF grade, female, 7 weeks old, 27–29 g) were provided by Zhejiang Weitong Lihua Laboratory Animal Technology Co., Ltd. A. Baumannii ATCC BAA-1605 was provided by Nantong Wuxi Apptec Medical Technology Co., Ltd. (Nanjing, China). Experimental animals were admitted to Wuxi AppTec BSL-2 animal facility and subjected to an adaptation period of at least 3 to 4 days. Immunosuppressed mice with neutrophil deficiency were prepared by intraperitoneal injection of cyclophosphamide (150 mg/kg at day -4; 100 mg/kg at day -1). On day 0, the infected bacterial solution was inoculated by intramuscular injection, and 0.1 mL of the bacterial solution was inoculated into the right thigh of each mouse. At 2 h and 24 h after infection, the PME formulations were administered by tail vein according to the experimental protocol. Animals in the blank group were euthanized 2 h after infection. The right thighs of those mice were collected and homogenized. The diluent was cultured overnight and CFUs were counted the next day. Animals in the negative control group and other treatment groups were euthanized 24 h after infection. […] The diluent was cultured overnight and CFUs were counted the next day. […]
The dosages were calculated based on the weight of the mice, and different dosage levels were achieved by adjusting the drug volume accordingly.

[3] = rat, in vivo
in vivo = conditions: SD, rat

CCC(C)CCCC(=O)N[C@@H](CCN)C(=O)N[C@H](C(=O)N[C@@H](CCN)C(=O)N[C@H]1CCNC(=O)[C@H]([C@@H](C)O)NC(=O)[C@H](CCN)NC(=O)[C@H](CCN)NC(=O)[C@H](CC(C)C)NC(=O)[C@@H](CC(C)C)NC(=O)[C@H](CCN)NC1=O)[C@@H](C)O (stereo partly drawn) ({Heptanoyl(5-Me)}-[Dab]T[Dab][Dab][Dab][dL]L[Dab][Dab]T; lactam 4-C)
MIC50 (Acinetobacter baumannii): 0.5 µg/mL (≈ 0.433 µM) | MIC range (Acinetobacter baumannii): 0.5 to 1 µg/mL | MIC50 (Klebsiella pneumoniae): 0.5 µg/mL (≈ 0.433 µM) | MTD / tolerated dose (CD-1 mice): 10 mpk | gastric mucosal bleeding [1]: showed gastric mucosal bleeding | change of bacterial levels [2]: did not increase bacterial levels | intersection point between distribution phase and elimination phase [3]: 0.5 h | AUC(0-inf) (in vivo): 12300 ± 2120 ng·h/mL | Cmax (in vivo): 10300 ± 1780 ng/mL | MRT (in vivo): 1.63 ± 0.15 h | Tmax (in vivo): 4.8 min | Vd (in vivo): 0.404 ± 0.0545 L/kg | clearance (in vivo): 4.16 ± 0.78 mL/min/kg | half-life (in vivo): 1.33 ± 0.05 h
